In ChEMBL document CHEMBL4396884, “Structure-Aided Identification and Optimization of Tetrahydro-isoquinolines as Novel PDE4 Inhibitors Leading to Discovery of an Effective Antipsoriasis Agent” (J Med Chem, 2019):
The source made the active and inactive calls. The rule behind the calls is not given here.

Key:
[1] = MRT in Sprague-Dawley rat at 25 mg/kg, po by LC-MS/MS analysis; assay type: ADME, organism-based; conditions: in vivo
[2] = MRT in Sprague-Dawley rat at 10 mg/kg, iv by LC-MS/MS analysis; assay type: ADME, organism-based; conditions: in vivo
Mus musculus [3] = test: Protection against imiquimod-induced skin inflammation in BALB/c mouse psoriasis model assessed as decrease in lesion thickness at 62.5 mg administered topically as cream formulation once daily for 7 days; assay type: functional, organism-based
Mus musculus [4] = test: Protection against imiquimod-induced skin inflammation in BALB/c mouse psoriasis model assessed as decrease in skin erythema at 25 mg/kg, po administered once daily for 7 days; assay type: functional, organism-based
[5] = Half life in Sprague-Dawley rat at 10 mg/kg, iv by LC-MS/MS analysis; assay type: ADME, organism-based; conditions: in vivo
[6] = AUC (0 to infinity) in Sprague-Dawley rat at 10 mg/kg, iv by LC-MS/MS analysis; assay type: ADME, organism-based; design: dose 10 mg/kg, route intravenous, time infinity; conditions: in vivo
[7] = Clearance in Sprague-Dawley rat at 10 mg/kg, iv by LC-MS/MS analysis; assay type: ADME, organism-based; conditions: in vivo
[8] = Permeability across basal to apical side in human Caco2 cells assessed as drug recovery measured after 95 mins by LC-MS/MS analysis; assay type: ADME, cell-based; conditions: Caco-2, read-out: Drug recovery
Mus musculus [9] = test: Antiinflammatory activity in specific pathogen free BALB/c mouse assessed as inhibition of LPS-induced TNFalpha secretion in spleen at 1 mg/kg, po administered as single dose pretreated for 1.5 hrs followed by LPS stimulation and measured after 2 hrs by ELISA; assay type: functional, organism-based
[10] = Apparent permeability across basal to apical side in human Caco2 cells measured after 95 mins by LC-MS/MS analysis; assay type: ADME, cell-based; conditions: Caco-2
[11] = Cmax in Sprague-Dawley rat at 25 mg/kg, po by LC-MS/MS analysis; assay type: ADME, organism-based; design: dose 25 mg/kg, route oral; conditions: in vivo
[12] = Permeability across apical to basal side in human Caco2 cells assessed as drug recovery measured after 95 mins by LC-MS/MS analysis; assay type: ADME, cell-based; conditions: Caco-2, read-out: Drug recovery
[13] = AUC (0 to t) in Sprague-Dawley rat at 25 mg/kg, po by LC-MS/MS analysis; assay type: ADME, organism-based; conditions: in vivo
Mus musculus [14] = test: Protection against imiquimod-induced skin inflammation in BALB/c mouse psoriasis model assessed as decrease in cumulative psoriasis score at 25 mg/kg, po administered once daily for 7 days; assay type: functional, organism-based
[15] = Volume of distribution at steady state in Sprague-Dawley rat at 10 mg/kg, iv by LC-MS/MS analysis; assay type: ADME, organism-based; conditions: in vivo, read-out: Vdss
Mus musculus [16] = test: Antiinflammatory activity in specific pathogen free BALB/c mouse assessed as inhibition of LPS-induced TNFalpha secretion in serum at 1 mg/kg, po administered as single dose pretreated for 1.5 hrs followed by LPS stimulation and measured after 2 hrs by ELISA; assay type: functional, organism-based
Mus musculus [17] = test: Antiinflammatory activity in specific pathogen free BALB/c mouse assessed as inhibition of LPS-induced IL12p40 secretion in serum at 1 mg/kg, po administered as single dose pretreated for 1.5 hrs followed by LPS stimulation and measured after 2 hrs by ELISA; assay type: functional, organism-based
Mus musculus [18] = test: Protection against imiquimod-induced skin inflammation in BALB/c mouse psoriasis model assessed as decrease in lesion thickness at 25 mg/kg, po administered once daily for 7 days; assay type: functional, organism-based
[19] = AUC (0 to t) in Sprague-Dawley rat at 10 mg/kg, iv by LC-MS/MS analysis; assay type: ADME, organism-based; conditions: in vivo
[20] = AUC (0 to infinity) in Sprague-Dawley rat at 25 mg/kg, po by LC-MS/MS analysis; assay type: ADME, organism-based; design: dose 25 mg/kg, route oral, time infinity; conditions: in vivo
Mus musculus [21] = test: Antiinflammatory activity in specific pathogen free BALB/c mouse assessed as inhibition of LPS-induced IL6 secretion in spleen at 1 mg/kg, po administered as single dose pretreated for 1.5 hrs followed by LPS stimulation and measured after 2 hrs by ELISA; assay type: functional, organism-based
[22] = Oral bioavailability in Sprague-Dawley rat at 25 mg/kg by LC-MS/MS analysis; assay type: ADME, organism-based; conditions: in vivo
Mus musculus [23] = test: Antiinflammatory activity in specific pathogen free BALB/c mouse assessed as inhibition of LPS-induced IL12p40 secretion in spleen at 1 mg/kg, po administered as single dose pretreated for 1.5 hrs followed by LPS stimulation and measured after 2 hrs by ELISA; assay type: functional, organism-based
[24] = Half life in Sprague-Dawley rat at 25 mg/kg, po by LC-MS/MS analysis; assay type: ADME, organism-based; conditions: in vivo
Mus musculus [25] = test: Protection against imiquimod-induced skin inflammation in BALB/c mouse psoriasis model assessed as decrease in skin erythema at 62.5 mg administered topically as cream formulation once daily for 7 days; assay type: functional, organism-based
Mus musculus [26] = test: Antiinflammatory activity in specific pathogen free BALB/c mouse assessed as inhibition of LPS-induced IL6 secretion in serum at 1 mg/kg, po administered as single dose pretreated for 1.5 hrs followed by LPS stimulation and measured after 2 hrs by ELISA; assay type: functional, organism-based
Mus musculus [27] = test: Protection against imiquimod-induced skin inflammation in BALB/c mouse psoriasis model assessed as decrease in skin scaling at 62.5 mg administered topically as cream formulation once daily for 7 days; assay type: functional, organism-based
Mus musculus [28] = test: Protection against imiquimod-induced skin inflammation in BALB/c mouse psoriasis model assessed as decrease in skin scaling at 25 mg/kg, po administered once daily for 7 days; assay type: functional, organism-based
[29] = Tmax in Sprague-Dawley rat at 25 mg/kg, po by LC-MS/MS analysis; assay type: ADME, organism-based; conditions: in vivo
[30] = Apparent permeability across apical to basal side in human Caco2 cells measured after 95 mins by LC-MS/MS analysis; assay type: ADME, cell-based; conditions: Caco-2
[31] = molecular target: 3',5'-cyclic-AMP phosphodiesterase 4D (Homo sapiens) (UniProt Q08499); test: Inhibition of recombinant human PDE4D catalytic domain at 1 uM using [3H]cAMP as substrate measured after 30 mins by scintillation proximity assay relative to control
[32] = molecular target: Phosphodiesterase 4 (Homo sapiens) (UniProt P27815+Q08499+Q07343+Q08493); test: Inhibition of PDE4 in human PBMC assessed as reduction in LPS-stimulated TNFalpha production at 10 uM preincubated for 1 hr followed by LPS stimulation and measured after 18 to 20 hrs by ELISA relative to control; assay type: protein assay
[33] = molecular target: 3',5'-cyclic-AMP phosphodiesterase 4D (Homo sapiens) (UniProt Q08499); test: Inhibition of recombinant human PDE4D catalytic domain at 10 uM using [3H]cAMP as substrate measured after 30 mins by scintillation proximity assay relative to control

3',5'-cyclic-AMP phosphodiesterase 4D (Homo sapiens), sequence (Q08499 whole entry, the tested form may be a part): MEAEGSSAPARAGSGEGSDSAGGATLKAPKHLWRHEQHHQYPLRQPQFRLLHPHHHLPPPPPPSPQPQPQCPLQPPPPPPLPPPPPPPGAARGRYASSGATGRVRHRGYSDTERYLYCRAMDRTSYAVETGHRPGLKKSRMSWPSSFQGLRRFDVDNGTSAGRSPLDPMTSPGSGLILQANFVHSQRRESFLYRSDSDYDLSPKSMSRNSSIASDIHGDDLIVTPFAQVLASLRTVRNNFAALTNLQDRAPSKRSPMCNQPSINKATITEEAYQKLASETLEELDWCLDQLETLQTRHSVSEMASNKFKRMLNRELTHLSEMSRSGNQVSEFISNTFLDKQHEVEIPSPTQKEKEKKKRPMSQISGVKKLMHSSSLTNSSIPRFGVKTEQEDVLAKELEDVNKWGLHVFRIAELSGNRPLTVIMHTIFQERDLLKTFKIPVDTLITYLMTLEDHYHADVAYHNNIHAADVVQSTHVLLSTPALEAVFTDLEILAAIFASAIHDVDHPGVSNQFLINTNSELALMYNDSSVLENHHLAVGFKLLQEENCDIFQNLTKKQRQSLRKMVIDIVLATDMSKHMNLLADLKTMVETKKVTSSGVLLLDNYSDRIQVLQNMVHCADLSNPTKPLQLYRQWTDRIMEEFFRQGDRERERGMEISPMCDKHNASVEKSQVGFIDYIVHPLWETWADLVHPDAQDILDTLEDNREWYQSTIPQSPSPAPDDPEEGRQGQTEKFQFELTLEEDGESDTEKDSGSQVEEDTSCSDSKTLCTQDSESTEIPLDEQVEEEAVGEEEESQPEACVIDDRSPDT

COc1cc2c(cc1OC)[C@H](CCc1c[nH]c3cc(C)ccc13)N(C=O)CC2
MRT [1]: 150 min
MRT [2]: 55.2 min
Activity (Mus musculus [3]): Active
Activity (Mus musculus [4]): Active
half-life [5]: 36 min
AUC(0-inf) [6]: 6.28 µg·h/mL
clearance [7]: 1.7 L/h/kg
recovery at 95 min [8]: 96.8%
Activity (Mus musculus [9]): Active
Papp B→A at 95 min [10]: 199 nm/s
Cmax [11]: 2.45 µg/mL
recovery at 95 min [12]: 92.3%
AUC(0-t) [13]: 8.39 µg·h/mL
Activity (Mus musculus [14]): Active
Vd [15]: 1.56 L/kg
Activity (Mus musculus [16]): Active
Activity (Mus musculus [17]): Active
Activity (Mus musculus [18]): Active
AUC(0-t) [19]: 6.21 µg·h/mL
AUC(0-inf) [20]: 8.46 µg·h/mL
Activity (Mus musculus [21]): Active
bioavailability [22]: 68.3%
Activity (Mus musculus [23]): Active
half-life [24]: 56.4 min
Activity (Mus musculus [25]): Active
Activity (Mus musculus [26]): Active
Activity (Mus musculus [27]): Active
Activity (Mus musculus [28]): Active
Tmax [29]: 79.8 min
Papp A→B at 95 min [30]: 184 nm/s

COC(=O)CN1CCc2cc(OC)c(OC)cc2C1CCc1c[nH]c2ccccc12 (racemic)
inhibition [31]: 39.1%

COc1cc2c(cc1OC)C(CCc1c[nH]c3ccccc13)N(CC1CCOCC1)CC2 (racemic)
inhibition [32]: 36.7%
inhibition [33]: 34.6%

COc1cc2c(cc1OC)C(CCc1c[nH]c3ccccc13)N(CC(F)(F)F)CC2 (racemic)
inhibition [31]: 19.5%

COc1cc2c(cc1OC)C(CCc1c[nH]c3ccccc13)N(C(=O)c1ccncc1)CC2 (racemic)
inhibition [31]: 30.7%

CCOc1cc([C@@H](CS(C)(=O)=O)N2C(=O)c3cccc(NC(C)=O)c3C2=O)ccc1OC
Activity (Mus musculus [4]): Active
recovery at 95 min [8]: 92.1%
Papp B→A at 95 min [10]: 290 nm/s
recovery at 95 min [12]: 96.7%
Activity (Mus musculus [14]): Active
Activity (Mus musculus [18]): Active
Activity (Mus musculus [28]): Active
Papp A→B at 95 min [30]: 149 nm/s

COCCN1CCc2cc(OC)c(OC)cc2C1CCc1c[nH]c2ccccc12 (racemic)
inhibition [31]: 19.2%
inhibition [32]: 25.7%

COc1cc2c(cc1OC)C(CCc1c[nH]c3ccccc13)N(C(=O)C1CCOCC1)CC2 (racemic)
inhibition [31]: 16.4%

COc1cc2c(cc1OC1CCCC1)[C@H](CCc1c[nH]c3cc(C)ccc13)N(C=O)CC2
inhibition [31]: 24%
